Like-named read-outs stand apart in the source and are kept apart here.
Experiments:
NIH: OVCAR-3 = assay: Cell viability analysis, ovarian cancer NIH: OVCAR-3; type: cell-based, human; details: Homo sapiens, 72 h; NIH-OVCAR-3; repeated experiment; read-out: The results of antibiotic drug inhibiting cancer cell lines (cell viability analysis), NIH-OVCAR-3
[1] = system: HeLa (Cervix Adenocarcinoma); assay: Cell viability analysis, cervical cancer HeLa; type: cell-based, human; details: Homo sapiens, HeLa, 72 h, HeLa
[2] = system: AGS (Gastric Adenocarcinoma); assay: Cell viability analysis, gastric cancer AGS; type: cell-based, human; details: Homo sapiens, 72 h
[3] = system: TSGH-8301 (Urinary Bladder Carcinoma); assay: Cell viability analysis, bladder cancer TSGH-8301; type: cell-based, human; details: Homo sapiens, 72 h
T24 = assay: Cell viability analysis, bladder cancer T24; type: cell-based, human; details: Homo sapiens, T-24, 72 h; T24; repeated experiment; read-out: The results of antibiotic drug inhibiting cancer cell lines (cell viability analysis), T24
[4] = system: LoVo (Colorectal Adenocarcinoma); assay: Cell viability analysis, colon cancer LoVo; type: cell-based, human; details: Homo sapiens, LoVo, 72 h
[5] = system: MKN-45 (Gastric Adenocarcinoma); assay: Cell viability analysis, gastric cancer MKN-45; type: cell-based, human; details: Homo sapiens, MKN-45, 72 h
TOV-21G = assay: Cell viability analysis, ovarian cancer TOV-21G; type: cell-based, human; details: Homo sapiens, TOV21G, 72 h; TOV-21G; repeated experiment; read-out: The results of antibiotic drug inhibiting cancer cell lines (cell viability analysis), TOV-21G
[6] = system: HepG2 (Hepatocellular Carcinoma); assay: Cell viability analysis, hepatic cancer HepG2; type: cell-based, human; details: Homo sapiens, HepG2, 72 h
[7] = system: BCC (basal cell carcinoma); assay: Cell viability analysis, skin cancer BCC; type: cell-based, human; details: Homo sapiens, 72 h; BCC; repeated experiment; read-out: The results of antibiotic drug inhibiting cancer cell lines (cell viability analysis), BCC
[8] = system: 786-O (Renal adenocarcinoma); assay: Cell viability analysis, renal cancer 786-O; type: cell-based, human; details: Homo sapiens, 786-0, 72 h; 786-O; repeated experiment; read-out: The results of antibiotic drug inhibiting cancer cell lines (cell viability analysis), 786-O
U-2OS = assay: Cell viability analysis, osteosarcoma U-2OS; type: cell-based, human; details: Homo sapiens, 72 h; U2OS; repeated experiment; read-out: The results of antibiotic drug inhibiting cancer cell lines (cell viability analysis), U2OS
[9] = system: C-33A (Cervical carcinoma); assay: Cell viability analysis, cervical cancer C-33A; type: cell-based, human; details: Homo sapiens, 72 h; C-33A; repeated experiment; read-out: The results of antibiotic drug inhibiting cancer cell lines (cell viability analysis), C-33A
AsPC-1 = assay: Cell viability analysis, pancreatic cancer AsPC-1; type: cell-based, human; details: Homo sapiens, ASPC1, 72 h; AsPC-1; repeated experiment; read-out: The results of antibiotic drug inhibiting cancer cell lines (cell viability analysis), AsPC-1
[10] = system: SAS (Tongue squamous cell carcinoma); assay: Cell viability analysis, tongue cancer SAS; type: cell-based, human; details: Homo sapiens, 72 h; SAS; repeated experiment; read-out: The results of antibiotic drug inhibiting cancer cell lines (cell viability analysis), SAS
[11] = system: PC3 (p53−) (Prostate Adenocarcinoma); assay: Cell viability analysis, prostate cancer PC3; type: cell-based, human; details: Homo sapiens, 72 h
BxPC-3 = assay: Cell viability analysis, pancreatic cancer BxPC-3; type: cell-based, human; details: Homo sapiens, 72 h; BxPC-3; repeated experiment; read-out: The results of antibiotic drug inhibiting cancer cell lines (cell viability analysis), BxPC-3
[12] = system: A375 (Amelanotic Melanoma); assay: Cell viability analysis, skin cancer A375; type: cell-based, human; details: Homo sapiens, A-375, 72 h
[13] = system: Hep3B (hepatocellular carcinoma); assay: Cell viability analysis, hepatic cancer Hep3B; type: cell-based, human; details: Homo sapiens, 72 h; Hep3B; repeated experiment; read-out: The results of antibiotic drug inhibiting cancer cell lines (cell viability analysis), Hep3B
[14] = system: MCF7 (Mammary Gland, Adenocarcinoma); assay: Cell viability analysis, breast cancer MCF7; type: cell-based, human; details: Homo sapiens, MCF7, 72 h
[15] = system: HCT116 (p53+) (Colorectal Carcinoma)
[16] = system: HI650 (Lung Adenocarcinoma); assay: Cell viability analysis, lung cancer HI650; type: cell-based, human; details: Homo sapiens, NCI-H1650, 72 h
[17] = system: MDA-MB-231 (Mammary Gland, Adenocarcinoma); assay: Cell viability analysis, breast cancer MDA-MB-231; type: cell-based, human; details: Homo sapiens, MDA-MB-231, 72 h; MDA-MB231; repeated experiment; read-out: The results of antibiotic drug inhibiting cancer cell lines (cell viability analysis), MDA-MB231
[18] = system: A549 (Lung Adenocarcinoma); assay: Cell viability analysis, lung cancer A549; type: cell-based, human; details: Homo sapiens, A549, 72 h
[19] = repeated experiment, read-out: The results of antibiotic drug inhibiting cancer cell lines (cell viability analysis), HeLa
[20] = drug 10 μM, 72 hours, WST-1, OD450 nm, read-out: cell viability (survival rate), HeLa
[21] = AGS, repeated experiment, read-out: The results of antibiotic drug inhibiting cancer cell lines (cell viability analysis), AGS
[22] = drug 10 μM, 72 hours, WST-1, OD450 nm, read-out: cell viability (survival rate), AGS
[23] = TSGH-8301, repeated experiment, read-out: The results of antibiotic drug inhibiting cancer cell lines (cell viability analysis), TSGH-8301
[24] = drug 10 μM, 72 hours, WST-1, OD450 nm, read-out: cell viability (survival rate), TSGH
[25] = read-out: The results of antibiotic drug inhibiting cancer cell lines (cell viability analysis), LoVo, repeated experiment
[26] = read-out: cell viability (survival rate), LoVo, drug 10 μM, 72 hours, WST-1, OD450 nm
[27] = MKN-45, repeated experiment, read-out: The results of antibiotic drug inhibiting cancer cell lines (cell viability analysis), MKN-45
[28] = drug 10 μM, 72 hours, WST-1, OD450 nm, read-out: cell viability (survival rate), MKN-45
[29] = HepG2, repeated experiment, read-out: The results of antibiotic drug inhibiting cancer cell lines (cell viability analysis), HepG2
[30] = drug 10 μM, 72 hours, WST-1, OD450 nm, read-out: cell viability (survival rate), HepG2
[31] = PC-3, repeated experiment, read-out: The results of antibiotic drug inhibiting cancer cell lines (cell viability analysis), PC-3
[32] = drug 10 μM, 72 hours, WST-1, OD450 nm, read-out: cell viability (survival rate), PC3
[33] = A375, repeated experiment, read-out: The results of antibiotic drug inhibiting cancer cell lines (cell viability analysis), A375
[34] = drug 10 μM, 72 hours, WST-1, OD450 nm, read-out: cell viability (survival rate), A375
[35] = MCF-7, repeated experiment, read-out: The results of antibiotic drug inhibiting cancer cell lines (cell viability analysis), MCF-7
[36] = drug 10 μM, 72 hours, WST-1, OD450 nm, read-out: cell viability (survival rate), MCF7
[37] = H1650, repeated experiment, read-out: The results of antibiotic drug inhibiting cancer cell lines (cell viability analysis), H1650
[38] = drug 10 μM, 72 hours, WST-1, OD450 nm, read-out: cell viability (survival rate), H1650
[39] = A549, repeated experiment, read-out: The results of antibiotic drug inhibiting cancer cell lines (cell viability analysis), A549
[40] = drug 10 μM, 72 hours, WST-1, OD450 nm, read-out: cell viability (survival rate), A549

Compound | viability at 10 µM (NIH: OVCAR-3) [%] | viability at 10 µM [1, 19] [%] | viability at 10 µM [1, 20] [%] | viability at 10 µM [2, 21] [%] | viability at 10 µM [2, 22] [%] | viability at 10 µM [3, 23] [%] | viability at 10 µM [3, 24] [%] | viability at 10 µM (T24) [%] | viability at 10 µM [4, 25] [%] | viability at 10 µM [4, 26] [%] | viability at 10 µM [5, 27] [%] | viability at 10 µM [5, 28] [%] | viability at 10 µM (TOV-21G) [%] | viability at 10 µM [6, 29] [%] | viability at 10 µM [6, 30] [%] | viability at 10 µM [7] [%] | viability at 10 µM [8] [%] | viability at 10 µM (U-2OS) [%] | viability at 10 µM [9] [%] | viability at 10 µM (AsPC-1) [%] | also measured
COc1c(C)c2c(c(O)c1C/C=C(\C)CCC(=O)O)C(=O)OC2 [Mycophenolic (Mycophenolate), Mycophenolic] | 59 | 46.1 | 90.7 | 31.7 | 57.8 | 57.5 | 40.3 | 48.2 | 58.6 | 70.1 | 64.9 | 61.7 | 40.3 | 62.1 | 72.9 | 44.6 | 24.7 | 43.2 | 51.8 | 48.1 | viability at 10 µM [10]: 43.2%; viability at 10 µM [11, 31]: 55.4%; viability at 10 µM [11, 32]: 74.3%; viability at 10 µM (BxPC-3): 45.7%; viability at 10 µM [12, 33]: 28.9%; viability at 10 µM [12, 34]: 57.4%; viability at 10 µM [13]: 66.8%; viability at 10 µM [14, 35]: 70.3%; viability at 10 µM [14, 36]: 120%; viability [15]: 43.1%; viability at 10 µM [16, 37]: 54.5%; viability at 10 µM [16, 38]: 83.1%; viability at 10 µM [17]: 56.9%; viability at 10 µM [18, 39]: 39%; viability at 10 µM [18, 40]: 80.6%
NC(=O)N/N=C/c1ccc([N+](=O)[O-])o1 [Nitrofurazone (Nitrofural), Nitrofurazone] | 99.5 | 51.2 | 55.4 | 88.2 | 28 | 83.9 | 32.5 | 87.4 | 84.8 | 64.9 | 86.8 | 42 | 95.7 | 95.4 | 82.4 | 93 | 90 | 92.4 | 83.2 | 76.7 | viability at 10 µM [10]: 92.3%; viability at 10 µM [11, 31]: 98.6%; viability at 10 µM [11, 32]: 53.8%; viability at 10 µM (BxPC-3): 71.6%; viability at 10 µM [12, 33]: 94.7%; viability at 10 µM [12, 34]: 54.9%; viability at 10 µM [13]: 95.3%; viability at 10 µM [14, 35]: 107%; viability at 10 µM [14, 36]: 35.3%; viability [15]: 110%; viability at 10 µM [16, 37]: 67.3%; viability at 10 µM [16, 38]: 61.1%; viability at 10 µM [17]: 84%; viability at 10 µM [18, 39]: 114%; viability at 10 µM [18, 40]: 44.3%
